Data as given in ChEMBL document CHEMBL3507680, “University of Dundee, Gates Library screen for HepG2 cell viability”.

Test: Human HepG2 cell viability assay in 384 well format
Type: toxicity, cell-based
Parameters: dose 125 nL, time 70.5 hour; cytotoxicity at 70.5 h: concentration not given beside the values
Settings: HepG2 cells, read-out: Inhibition

CN(C)C(=O)c1cc2c(s1)CCN(C(=O)CCCN1CCCCC1)C2
cytotoxicity at 70.5 h: -6.61%

Cc1nc(-c2cc(Cl)c3c(c2)CC(CN)O3)c[nH]1 (stereo not given)
cytotoxicity at 70.5 h: 0.0695%

CC(=O)N1C[C@H](NS(=O)(=O)N2CCCC2)[C@@H](c2ccc(C)o2)C1
cytotoxicity at 70.5 h: -7.2%

CNS(=O)(=O)c1ccc(CN2CCCN(c3ccccc3)CC2)cc1
cytotoxicity at 70.5 h: 18%

COc1ccc(C(C(=O)O)N2CCN(C3CCCC3)CC2)cc1C (stereo not given)
cytotoxicity at 70.5 h: -1.67%

CNC(=O)c1cn2cc(-c3cccc(Cl)c3)n(CC=C(C)C)c(=O)c2n1
cytotoxicity at 70.5 h: -5.75%

CCN(Cc1cnn(CC)c1)C(=O)CN1C(=O)CCc2ccccc21
cytotoxicity at 70.5 h: -4.74%

CNc1cc(C)nc(-c2cc(NC)nc3[nH]ccc23)n1
cytotoxicity at 70.5 h: -8.84%

CSc1ccc(-c2nc(CN3CCC(NC(C)=O)CC3)c(C)o2)cc1
cytotoxicity at 70.5 h: -7.12%

CC(C)[C@@H]1CN(c2ncc(F)cn2)C[C@H]1NC(=O)N(C)C
cytotoxicity at 70.5 h: -3.08%

Cc1c(O)cccc1C(=O)N1CCCC2(C1)C(=O)N(C)c1ccccc12 (stereo not given)
cytotoxicity at 70.5 h: 23%

Cc1cc(C)n2nc(CC(=O)N[C@H]3C[C@H]4CN(C)CCN4C3)nc2n1
cytotoxicity at 70.5 h: -7.89%

CC(=O)c1ccc(CN2C[C@@H](CN3CCC(O)CC3)[C@@H](CO)C2)cc1
cytotoxicity at 70.5 h: -2.46%

Cc1cc(N(C)Cc2ccsc2)n2nc(C)c(C)c2n1
cytotoxicity at 70.5 h: -10.9%

Cc1cc(C)nc(CN(C)C(=O)C(c2cccnc2)N2CCCC2)c1 (stereo not given)
cytotoxicity at 70.5 h: -9.19%

CCCC1(C(=O)O)CCCN(C(=O)c2cc(Cl)ccc2F)C1 (stereo not given)
cytotoxicity at 70.5 h: -13.1%

O=c1[nH]ccn1CCCN1CC=C(c2cnn(-c3ccccc3)c2)CC1
cytotoxicity at 70.5 h: -2.11%

CCn1nc(C(C)C)cc1C(=O)N1CC(OCc2ccccc2F)C1
cytotoxicity at 70.5 h: 0.716%

CC(C)CS(=O)(=O)CCNc1ncccn1
cytotoxicity at 70.5 h: -4.65%

O=C(NCCn1cccc1)C1CCC(=O)N(C2CCCC2)C1 (stereo not given)
cytotoxicity at 70.5 h: -8.05%

CCN1CCN(CCCNc2ncccn2)CC1
cytotoxicity at 70.5 h: 9.52%

c1cn(CCNc2nc(NC3CC3)nc3c2CCNCC3)nn1
cytotoxicity at 70.5 h: -14.7%

OCc1cn([C@@H]2c3ccccc3C3(CCNCC3)[C@H]2O)nn1
cytotoxicity at 70.5 h: -9%

Cn1ncc2c(N[C@@H]3CS(=O)(=O)C[C@H]3O)nc(C(C)(C)C)nc21
cytotoxicity at 70.5 h: -9.52%

Cc1nonc1OCCNC(=O)COc1ccc(Cl)cc1Cl
cytotoxicity at 70.5 h: -13.9%

CNC(=O)[C@@H]1C[C@@H](NC(=O)CSc2ccccc2)CN1C1CCOCC1
cytotoxicity at 70.5 h: 14.1%

COc1cc(-c2cc(-c3ccn(C)c3)nc(N)c2C#N)cc(OC)c1O
cytotoxicity at 70.5 h: -1.48%

CCc1ccc(CN2CCN(C(=O)C(C)C)[C@@H]3CS(=O)(=O)C[C@@H]32)cc1
cytotoxicity at 70.5 h: 14.5%

CCn1nc(C)c(C(C)NC(=O)c2cccc(NCC(=O)O)c2)c1C (stereo not given)
cytotoxicity at 70.5 h: -9.45%

Cc1n[nH]c(CCC(=O)N2CCOC(Cc3ccccc3)C2)c1C (stereo not given)
cytotoxicity at 70.5 h: -7.3%

CNc1ncc(CN(C)C(=O)c2cccc(-n3cccn3)c2)cn1
cytotoxicity at 70.5 h: -6.94%

O=C1CC(NS(=O)(=O)NCc2ccccc2)CN1c1ccccc1Cl (stereo not given)
cytotoxicity at 70.5 h: 5.29%

OC1(CN(Cc2cccnc2)C2CCCCC2)CNCCOC1 (stereo not given)
cytotoxicity at 70.5 h: -2.72%

CCn1c(C)nnc1SCCNc1nc(C)nc2ncccc12
cytotoxicity at 70.5 h: -15.7%

CN(C)CCNC(=O)c1cc2n(n1)CCN(C(=O)c1ccco1)C2
cytotoxicity at 70.5 h: -5.47%

CC(C)n1cnnc1CN(C)Cc1cnc(-c2ccco2)nc1
cytotoxicity at 70.5 h: -1.59%

COCCN(C)CCN1CC2(CCN(C3CCOCC3)CC2)OC1=O
cytotoxicity at 70.5 h: 20.5%

Cc1ccc(-c2cc(C(=O)N3CCCC3c3cccnc3)[nH]n2)o1 (stereo not given)
cytotoxicity at 70.5 h: -4.23%

CC(=O)c1cnc(NCCN2CCCC(c3ccccc3)C2)nc1C (stereo not given)
cytotoxicity at 70.5 h: 14.2%

Cc1c[nH]c(CN(C)C(C(=O)O)c2c(F)cccc2Cl)n1 (stereo not given)
cytotoxicity at 70.5 h: 1.26%

O=C(c1ccnc(N2CCOC(c3ccc(Cl)cc3)C2)c1)N1CCCC1 (stereo not given)
cytotoxicity at 70.5 h: -15.4%

CCn1c(C)cc(C(=O)N2CCCC(C(=O)c3nccn3C)C2)c1C (stereo not given)
cytotoxicity at 70.5 h: 19.6%

Cn1ccnc1C1CCN(C(=O)COCC(F)(F)C(F)F)CC1
cytotoxicity at 70.5 h: -14.1%

CCCn1cnnc1CNC1CSCCSC1
cytotoxicity at 70.5 h: -9.24%

Nc1ccnc(N2CCC(c3nccn3CC3CC3)CC2)n1
cytotoxicity at 70.5 h: 17.6%

CCn1cc(S(=O)(=O)N2CCC3(CCCN(CC4CCC4)C3=O)C2)cn1 (stereo not given)
cytotoxicity at 70.5 h: -0.872%

CC(CO)CN(Cc1ccccc1)Cc1c[nH]cn1 (stereo not given)
cytotoxicity at 70.5 h: -15.2%

COc1ccc(OCC2CCCN(Cc3ccncc3)C2)cc1 (stereo not given)
cytotoxicity at 70.5 h: -12.6%

Cc1cc(C)n(CC(=O)N2CCCCC2CCN(C)C)c(=O)n1 (stereo not given)
cytotoxicity at 70.5 h: -7.91%

Cc1cc(C2CCC2)nc(N(C)Cc2cnccn2)n1
cytotoxicity at 70.5 h: -6.23%

COCCc1ncc(CN2C[C@@H](C(=O)O)[C@H](C(C)C)C2)cn1
cytotoxicity at 70.5 h: 14.1%

COCCN(CC1CC1)c1nc(CCN)nc2sc(C)c(C)c12
cytotoxicity at 70.5 h: 26.7%

COc1cccc(-n2cc(CN(C)Cc3ccnc(C(C)C)n3)cn2)c1
cytotoxicity at 70.5 h: -6.06%

COc1ccc(-c2nc3c([nH]2)CCCNC3=O)cc1OC
cytotoxicity at 70.5 h: 4.81%

CC(C)(CNC1CCCN(Cc2ccccn2)C1)CN1CCOCC1 (stereo not given)
cytotoxicity at 70.5 h: -12.6%
